From PubChem BioAssay (NCI)
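Method: 48-hour compound exposure of cells in 96-well plates, five concentrations, linear interpolation of endpoints. TGI: total growth inhibition.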

Legend:
Experiment in all cases: NCI tumour cell line growth inhibition, 48 h
786-0 renal = test system: 786-0 renal
A498 renal = test system: A498 renal
A549 NSCLC = test system: A549 NSCLC
ACHN renal = test system: ACHN renal
CAKI-1 renal = test system: CAKI-1 renal
CCRF-CEM leukemia = test system: CCRF-CEM leukemia
COLO 205 colon = test system: COLO 205 colon
DLD-1 colon = test system: DLD-1 colon
DMS 114 small cell lung = test system: DMS 114 small cell lung
DMS 273 small cell lung = test system: DMS 273 small cell lung
EKVX NSCLC = test system: EKVX NSCLC
HCC-2998 colon = test system: HCC-2998 colon
HCT-116 colon = test system: HCT-116 colon
HCT-15 colon = test system: HCT-15 colon
HOP-18 NSCLC = test system: HOP-18 NSCLC
HOP-62 NSCLC = test system: HOP-62 NSCLC
HOP-92 NSCLC = test system: HOP-92 NSCLC
HT29 colon = test system: HT29 colon
IGROV1 ovarian = test system: IGROV1 ovarian
K-562 leukemia = test system: K-562 leukemia
KM12 colon = test system: KM12 colon
KM20L2 colon = test system: KM20L2 colon
LOX IMVI melanoma = test system: LOX IMVI melanoma
LXFL 529 NSCLC = test system: LXFL 529 NSCLC
M14 melanoma = test system: M14 melanoma
M19-MEL melanoma = test system: M19-MEL melanoma
MALME-3M melanoma = test system: MALME-3M melanoma
NCI-H226 lung = test system: NCI-H226 lung
NCI-H23 lung = test system: NCI-H23 lung
NCI-H460 lung = test system: NCI-H460 lung
NCI-H522 lung = test system: NCI-H522 lung
OVCAR-3 ovarian = test system: OVCAR-3 ovarian
OVCAR-4 ovarian = test system: OVCAR-4 ovarian
OVCAR-5 ovarian = test system: OVCAR-5 ovarian
OVCAR-8 ovarian = test system: OVCAR-8 ovarian
RPMI-8226 leukemia = test system: RPMI-8226 leukemia
RXF 393 renal = test system: RXF 393 renal
RXF-631 renal = test system: RXF-631 renal
SF-268 CNS = test system: SF-268 CNS
SF-295 CNS = test system: SF-295 CNS
SF-539 CNS = test system: SF-539 CNS
SK-MEL-28 melanoma = test system: SK-MEL-28 melanoma
SK-MEL-5 melanoma = test system: SK-MEL-5 melanoma
SK-OV-3 ovarian = test system: SK-OV-3 ovarian
SN12C renal = test system: SN12C renal
SNB-19 CNS = test system: SNB-19 CNS
SW-620 colon = test system: SW-620 colon
TK-10 renal = test system: TK-10 renal
U251 CNS = test system: U251 CNS
UACC-257 melanoma = test system: UACC-257 melanoma
UACC-62 melanoma = test system: UACC-62 melanoma
UO-31 renal = test system: UO-31 renal
HL-60(TB) leukemia = test system: HL-60(TB) leukemia
MOLT-4 leukemia = test system: MOLT-4 leukemia
SK-MEL-2 melanoma = test system: SK-MEL-2 melanoma
SNB-75 CNS = test system: SNB-75 CNS
SR leukemia = test system: SR leukemia
SNB-78 CNS = test system: SNB-78 CNS
XF 498 CNS = test system: XF 498 CNS

Measured: TGI

O=C(C=P(c1ccccc1)(c1ccccc1)c1ccccc1)CC(=S)CC(=O)C=P(c1ccccc1)(c1ccccc1)c1ccccc1
11.7 µM: U251 CNS
47.1 µM: UACC-62 melanoma
50.8 µM: TK-10 renal
3.71 µM: COLO 205 colon
16.4 µM: NCI-H23 lung
24.1 µM: NCI-H226 lung
29.3 µM: HCT-15 colon
8.26 µM: SK-MEL-5 melanoma
80 µM: OVCAR-5 ovarian
12.5 µM: OVCAR-3 ovarian
6.09 µM: HOP-92 NSCLC
14.7 µM: HCC-2998 colon
> 100 µM: 786-0 renal | A549 NSCLC | CAKI-1 renal | CCRF-CEM leukemia | EKVX NSCLC | HCT-116 colon | HT29 colon | IGROV1 ovarian | K-562 leukemia | KM20L2 colon | LOX IMVI melanoma | M19-MEL melanoma | MALME-3M melanoma | OVCAR-4 ovarian | RPMI-8226 leukemia | RXF-631 renal | SF-268 CNS | SK-MEL-28 melanoma | SK-OV-3 ovarian | SNB-19 CNS | SW-620 colon
53.6 µM: ACHN renal
13 µM: UACC-257 melanoma
25.2 µM: RXF 393 renal
20.6 µM: A498 renal
14.5 µM: SF-295 CNS
9.04 µM: HOP-18 NSCLC
15.7 µM: NCI-H522 lung
17.9 µM: DLD-1 colon | SN12C renal
24.8 µM: HOP-62 NSCLC
20.1 µM: LXFL 529 NSCLC
25 µM: SF-539 CNS
46.7 µM: NCI-H460 lung
98.9 µM: UO-31 renal
22.9 µM: OVCAR-8 ovarian
18.8 µM: KM12 colon
10.1 µM: DMS 273 small cell lung
20.5 µM: M14 melanoma
27 µM: DMS 114 small cell lung

COc1cc(C(C)c2cc3c(cc2OCCN)OCO3)cc(OC)c1OC (stereo not drawn)
> 100 µM: 786-0 renal | A498 renal | A549 NSCLC | ACHN renal | CAKI-1 renal | CCRF-CEM leukemia | COLO 205 colon | DLD-1 colon | DMS 114 small cell lung | DMS 273 small cell lung | EKVX NSCLC | HCC-2998 colon | HCT-116 colon | HCT-15 colon | HOP-62 NSCLC | HT29 colon | IGROV1 ovarian | K-562 leukemia | KM12 colon | LOX IMVI melanoma | LXFL 529 NSCLC | M14 melanoma | M19-MEL melanoma | MALME-3M melanoma | MOLT-4 leukemia | NCI-H226 lung | NCI-H23 lung | NCI-H460 lung | NCI-H522 lung | OVCAR-3 ovarian | OVCAR-4 ovarian | OVCAR-5 ovarian | OVCAR-8 ovarian | RPMI-8226 leukemia | RXF-631 renal | SF-268 CNS | SF-295 CNS | SF-539 CNS | SK-MEL-2 melanoma | SK-MEL-28 melanoma | SN12C renal | SNB-19 CNS | SR leukemia | SW-620 colon | TK-10 renal | U251 CNS | UACC-257 melanoma | UACC-62 melanoma | UO-31 renal
80.8 µM: KM20L2 colon
95.7 µM: RXF 393 renal
46.8 µM: SNB-75 CNS
47 µM: HL-60(TB) leukemia

CCCCSC(=CC(=O)c1cccc(C(=O)C=C(SCCCC)SCCCC)n1)SCCCC
> 100 µM: 786-0 renal | A498 renal | A549 NSCLC | ACHN renal | CAKI-1 renal | CCRF-CEM leukemia | COLO 205 colon | DLD-1 colon | DMS 114 small cell lung | DMS 273 small cell lung | EKVX NSCLC | HCC-2998 colon | HCT-116 colon | HCT-15 colon | HL-60(TB) leukemia | HOP-18 NSCLC | HOP-62 NSCLC | HOP-92 NSCLC | HT29 colon | IGROV1 ovarian | K-562 leukemia | KM12 colon | KM20L2 colon | LOX IMVI melanoma | LXFL 529 NSCLC | M14 melanoma | M19-MEL melanoma | MALME-3M melanoma | MOLT-4 leukemia | NCI-H226 lung | NCI-H23 lung | NCI-H460 lung | NCI-H522 lung | OVCAR-3 ovarian | OVCAR-4 ovarian | OVCAR-5 ovarian | OVCAR-8 ovarian | RPMI-8226 leukemia | RXF 393 renal | SF-268 CNS | SF-295 CNS | SF-539 CNS | SK-MEL-2 melanoma | SK-MEL-28 melanoma | SK-MEL-5 melanoma | SK-OV-3 ovarian | SN12C renal | SNB-19 CNS | SNB-75 CNS | SNB-78 CNS | SR leukemia | SW-620 colon | TK-10 renal | U251 CNS | UACC-257 melanoma | UACC-62 melanoma | UO-31 renal | XF 498 CNS
